These results are taken from patent US12458021B2, “Microbiocidal derivatives” (SYNGENTA CROP PROTECTION AG, priority 2019, dated 2025).

Experiment [1] has as its system Magnaporthe grisea (Pyricularia oryzae). In words: whole plant or invertebrate. The format is in vivo. Conditions: foliar, read-out: control of Magnaporthe grisea (percent disease control compared to untreated).
In experiment [2] the test system is Mycosphaerella graminicola (Septoria tritici). In words: Mycosphaerella graminicola (Septoria tritici) / liquid culture (Septoria blotch). It is filed as cell-based. Conditions: Zymoseptoria tritici, PDB potato dextrose broth, 24° C., 4-5 days after application, read-out: control of Mycosphaerella graminicola (inhibition of growth, photometric). How it is done: Example B15: Mycosphaerella graminicola (Septoria tritici)/Liquid Culture (Septoria Blotch) Conidia of the fungus from cryogenic storage are directly mixed into nutrient broth (PDB potato dextrose broth). After placing a (DMSO) solution of test compound into a microtiter plate (96-well format), the nutrient broth containing the fungal spores is added. The test plates are incubated at 24° C. and the inhibition of growth is determined photometrically 4-5 days after application. […] […]-191.

In experiment [3] the test system is Glomerella lagenarium (Colletotrichum lagenarium). In words: Glomerella lagenarium (Colletotrichum lagenarium) / liquid culture (anthracnose). It is filed as cell-based. To be noted: Colletotrichum orbiculare, PDB potato dextrose broth, 24° C., 3-4 days after application, read-out: control of Glomerella lagenarium (inhibition of growth, photometric). How it is done: Example B3: Glomerella lagenarium (Colletotrichum lagenarium)/Liquid Culture (Anthracnose) Conidia of the fungus from cryogenic storage are directly mixed into nutrient broth (PDB potato dextrose broth). After placing a (DMSO) solution of test compound into a microtiter plate (96-well format), the nutrient broth containing the fungal spores is added. The test plates are incubated at 24° C. and the inhibition of growth is measured photometrically 3-4 days after application. […] […]-191.

Experiment [4] has as its system Monographella nivalis (Microdochium nivale). In words: Monographella nivalis (Microdochium nivale) / liquid culture (foot rot cereals). The format is cell-based. To be noted: PDB potato dextrose broth, 24° C., 4-5 days after application, read-out: control of Monographella nivalis (inhibition of growth, photometric). The procedure: Example B7: Monographella nivalis (Microdochium nivale)/Liquid Culture (Foot Rot Cereals) Conidia of the fungus from cryogenic storage are directly mixed into nutrient broth (PDB potato dextrose broth). After placing a (DMSO) solution of test compound into a microtiter plate (96-well format), the nutrient broth containing the fungal spores is added. The test plates are incubated at 24° C. and the inhibition of growth is determined photometrically 4-5 days after application. […] […]-190.

Experiment [5] concerns Blumeria graminis f. sp. tritici (Erysiphe graminis f. sp. tritici). Put plainly: Blumeria graminis f. sp. tritici / wheat / leaf disc preventative (powdery mildew on wheat). Conditions: foliar, wheat leaf segments cv. Kanzler, inoculated 1 day after application, assessed 6-8 days after application, read-out: control of Blumeria graminis f. sp. tritici (percent disease control compared to untreated). The format is in vivo. An excerpt:
Example B4: Blumeria graminis f. sp. tritici (Erysiphe graminis f. sp. tritici)/Wheat/Leaf Disc Preventative (Powdery Mildew on Wheat) Wheat leaf segments cv. Kanzler are placed on agar in a multiwell plate (24-well format) and sprayed with the formulated test compound diluted in water. The leaf disks are inoculated by shaking powdery mildew infected plants above the test plates 1 day after application. […] […]-192.

For `COc1ccc(Nc2cc(F)nc(F)c2)nc1C(=O)NCC(C)c1ccccc1` (centres unmarked) [Compound P-32, 6-[(2,6-difluoro-4-pyridyl)amino]-3-methoxy-N-(2-phenylpropyl)pyridine-2-carboxamide], the pest or weed control at 200 ppm in experiment [1] is not below 80%. Also, the inhibition at 20 ppm in experiment [2] is not below 80%.
Turning to `COc1ccc(Nc2cnsc2)nc1C(=O)NC1CCC12CCCC2` (centres unmarked) [Compound P-33, 6-(isothiazol-4-ylamino)-3-methoxy-N-spiro[3.4]octan-3-yl-pyridine-2-carboxamide], the inhibition at 20 ppm in experiment [3], in experiment [4] and in experiment [2] was not below 80% in each case. Besides, the pest or weed control at 200 ppm in experiment [1] is not below 80%.
Regarding `COc1ccc(Nc2cc(F)nc(F)c2)nc1C(=O)NCC#CC(C)(C)C` [Compound P-35, 6-[(2,6-difluoro-4-pyridyl)amino]-N-(4,4-dimethylpent-2-ynyl)-3-methoxy-pyridine-2-carboxamide], in experiment [1], the pest or weed control at 200 ppm is not below 80%. In experiment [2], the inhibition at 20 ppm was not below 80%.
On to `COc1ccc(Nc2cc(F)nc(F)c2)nc1C(=O)NCC1(C(F)(F)F)CC1` [Compound P-49, 6-[(2,6-difluoro-4-pyridyl)amino]-3-methoxy-N-[[1-(trifluoromethyl)cyclopropyl]methyl]pyridine-2-carboxamide], for which, in experiment [1], the pest or weed control at 200 ppm is not below 80%.
`COc1ccc(Nc2cc(F)nc(F)c2)nc1C(=O)NCC1(C)CCOC2(CCC2)C1` (centres unmarked) [Compound P-52, 6-[(2,6-difluoro-4-pyridyl)amino]-3-methoxy-N-[(8-methyl-5-oxaspiro[3.5]nonan-8-yl)methyl]pyridine-2-carboxamide]: the pest or weed control at 200 ppm in experiment [5] and in experiment [1] was not below 80% in each case. Besides, the inhibition at 20 ppm in experiment [3] is not below 80%.
Take `COc1ccc(Nc2cc(F)cc(F)c2)nc1C(=O)NC1CC2CCOC21` (centres unmarked) [Compound P-59, 6-(3,5-difluoroanilino)-3-methoxy-N-(2-oxabicyclo[3.2.0]heptan-7-yl)pyridine-2-carboxamide]: in experiment [5], the pest or weed control at 200 ppm was not below 80%. Further, the inhibition at 20 ppm in experiment [3] and in experiment [2] was not below 80% each time.
On to `COc1ccc(Nc2cc(F)cc(F)c2)nc1C(=O)NC(C)C1CCOCC1` (centres unmarked) [Compound P-61, 6-(3,5-difluoroanilino)-3-methoxy-N-(1-tetrahydropyran-4-ylethyl)pyridine-2-carboxamide], for which the pest or weed control at 200 ppm in experiment [5] and in experiment [1] was not below 80% in each case. In addition, the inhibition at 20 ppm in experiment [3] was not below 80%.
As for `COc1ccc(Nc2cc(F)cc(F)c2)nc1C(=O)NCc1cnn(C)n1` [Compound P-69, 6-(3,5-difluoroanilino)-3-methoxy-N-[(2-methyltriazol-4-yl)methyl]pyridine-2-carboxamide], the pest or weed control at 200 ppm in experiment [1] is not below 80%.
On to `COc1ccc(Nc2cc(F)cc(F)c2)nc1C(=O)NC(C)c1ncc(C)o1` (centres unmarked) [Compound P-71, 6-(3,5-difluoroanilino)-3-methoxy-N-[1-(5-methyloxazol-2-yl)ethyl]pyridine-2-carboxamide], for which the inhibition at 20 ppm in experiment [3] and in experiment [2] was not below 80% throughout. The pest or weed control at 200 ppm in experiment [1] was not below 80%.
Regarding `COc1ccc(Nc2cc(F)nc(F)c2)nc1C(=O)NC1(c2ccc(F)cc2)CC1` [Compound P-89, 6-[(2,6-difluoro-4-pyridyl)amino]-N-[1-(4-fluorophenyl)cyclopropyl]-3-methoxy-pyridine-2-carboxamide], the pest or weed control at 200 ppm in experiment [1] was not below 80%.
Take `COc1ccc(Nc2cc(F)nc(F)c2)nc1C(=O)NC1(Cc2ccc(Cl)cc2)CC1` [Compound P-90, N-[1-[(4-chlorophenyl)methyl]cyclopropyl]-6-[(2,6-difluoro-4-pyridyl)amino]-3-methoxy-pyridine-2-carboxamide]: in experiment [3], the inhibition at 20 ppm was not below 80%. For the same compound, the pest or weed control at 200 ppm in experiment [1] is not below 80%.
On to `COc1ccc(Nc2cncc(F)c2)nc1C(=O)NC(C)(C)C` [Compound P-103, N-tert-butyl-6-[(5-fluoro-3-pyridyl)amino]-3-methoxy-pyridine-2-carboxamide], for which the pest or weed control at 200 ppm in experiment [5] and in experiment [1] was not below 80% throughout.
On to `CC(C)(C)CNC(=O)c1cccc(Nc2cc(F)cc(F)c2)n1` [Compound P-111, 6-(3,5-difluoroanilino)-N-(2,2-dimethylpropyl)pyridine-2-carboxamide], for which the inhibition at 20 ppm in experiment [3], in experiment [4] and in experiment [2] was not below 80% each time. Further, in experiment [1], the pest or weed control at 200 ppm is not below 80%.
Regarding `COc1ccc(Nc2cc(F)cc(F)c2)nc1C(=O)NC1(C#N)CSC1` [Compound P-121, N-(3-cyanothietan-3-yl)-6-(3,5-difluoroanilino)-3-methoxy-pyridine-2-carboxamide], in experiment [5], the pest or weed control at 200 ppm was not below 80%. Moreover, the inhibition at 20 ppm in experiment [3], in experiment [4] and in experiment [2] was not below 80% throughout.
Regarding `COc1ccc(Nc2cc(F)nc(F)c2)nc1C(=O)NC1(C)CCOC1` (centres unmarked) [Compound P-124, 6-[(2,6-difluoro-4-pyridyl)amino]-3-methoxy-N-(3-methyltetrahydrofuran-3-yl)pyridine-2-carboxamide], the pest or weed control at 200 ppm in experiment [5] is not below 80%.
`COc1ccc(Nc2cc(F)nc(F)c2)nc1C(=O)NC1(C#N)CCC1` [Compound P-126, N-(1-cyanocyclobutyl)-6-[(2,6-difluoro-4-pyridyl)amino]-3-methoxy-pyridine-2-carboxamide]: in experiment [1], the pest or weed control at 200 ppm is not below 80%.
As to `COc1ccc(Nc2cc(F)cc(F)c2)nc1C(=O)NC1(C#N)CCC1` [Compound P-129, N-(1-cyanocyclobutyl)-6-(3,5-difluoroanilino)-3-methoxy-pyridine-2-carboxamide], the inhibition at 20 ppm in experiment [3] and in experiment [2] was not below 80% each time. In experiment [1], the pest or weed control at 200 ppm is not below 80%.
Regarding `COc1ccc(Nc2ccc(Cl)c(F)c2)nc1C(=O)NCC(C)(C)C` [Compound P-144, 6-(4-chloro-3-fluoro-anilino)-N-(2,2-dimethylpropyl)-3-methoxy-pyridine-2-carboxamide], the inhibition at 20 ppm in experiment [3], in experiment [4] and in experiment [2] was not below 80% each time. In addition, the pest or weed control at 200 ppm in experiment [1] is not below 80%.
Turning to `COc1ccc(Nc2ccc3c(c2)OCO3)nc1C(=O)NC(C)(C)C` [Compound P-159, 6-(1,3-benzodioxo1-5-ylamino)-N-tert-butyl-3-methoxy-pyridine-2-carboxamide], the pest or weed control at 200 ppm in experiment [1] was not below 80%.
As for `COc1ccc(Nc2ccc(C#N)c(F)c2)nc1C(=O)NC(C)(C)C` [Compound P-164, N-tert-butyl-6-(4-cyano-3-fluoro-anilino)-3-methoxy-pyridine-2-carboxamide], the pest or weed control at 200 ppm in experiment [5] and in experiment [1] was not below 80% throughout.
Take `COc1ccc(Nc2cncnc2)nc1C(=O)NC(C)(C)C` [Compound P-166, N-tert-butyl-3-methoxy-6-(pyrimidin-5-ylamino)pyridine-2-carboxamide]: the pest or weed control at 200 ppm in experiment [5] is not below 80%.
For `COc1ccc(N(C(C)=O)c2cc(F)nc(F)c2)nc1C(=O)NC1CCC1(C)C` (centres unmarked) [Compound P-192, 6-[acetyl-(2,6-difluoro-4-pyridyl)amino]-N-(2,2-dimethylcyclobutyl)-3-methoxy-pyridine-2-carboxamide], the pest or weed control at 200 ppm in experiment [5] and in experiment [1] was not below 80% each time.

As usually defined, the inhibition is the share of the control response that was lost under treatment.
